# In patent US20250084039A1, “4-SUBSTITUTED AMINOISOQUINOLINE DERIVATIVES” (Purdue Research Foundation, priority 2016, published 2025):
# Like-named read-outs stand apart in the source and are kept apart here.
# Assays:
# [1] = system: MOLM14; experiment: IC50 determination (proliferation assay, CellTiter-Blue); format: cell-based; settings: for IC50: Homo sapiens, MOLM-14
# In short: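 MOLM14 and MV4-11 cells seeded about 18 h before compound addition (DMSO-diluted), then 72 h exposure.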
# [2] = biological target: FGFR1 (Homo sapiens (Human), UniProt P11362); experiment: Reaction Biology HotSpot kinase assay; format: biochemical; settings: 500 nM compound; read-out: Percentage kinase inhibition FGFR1
# FGFR1, sequence (P11362 22-822): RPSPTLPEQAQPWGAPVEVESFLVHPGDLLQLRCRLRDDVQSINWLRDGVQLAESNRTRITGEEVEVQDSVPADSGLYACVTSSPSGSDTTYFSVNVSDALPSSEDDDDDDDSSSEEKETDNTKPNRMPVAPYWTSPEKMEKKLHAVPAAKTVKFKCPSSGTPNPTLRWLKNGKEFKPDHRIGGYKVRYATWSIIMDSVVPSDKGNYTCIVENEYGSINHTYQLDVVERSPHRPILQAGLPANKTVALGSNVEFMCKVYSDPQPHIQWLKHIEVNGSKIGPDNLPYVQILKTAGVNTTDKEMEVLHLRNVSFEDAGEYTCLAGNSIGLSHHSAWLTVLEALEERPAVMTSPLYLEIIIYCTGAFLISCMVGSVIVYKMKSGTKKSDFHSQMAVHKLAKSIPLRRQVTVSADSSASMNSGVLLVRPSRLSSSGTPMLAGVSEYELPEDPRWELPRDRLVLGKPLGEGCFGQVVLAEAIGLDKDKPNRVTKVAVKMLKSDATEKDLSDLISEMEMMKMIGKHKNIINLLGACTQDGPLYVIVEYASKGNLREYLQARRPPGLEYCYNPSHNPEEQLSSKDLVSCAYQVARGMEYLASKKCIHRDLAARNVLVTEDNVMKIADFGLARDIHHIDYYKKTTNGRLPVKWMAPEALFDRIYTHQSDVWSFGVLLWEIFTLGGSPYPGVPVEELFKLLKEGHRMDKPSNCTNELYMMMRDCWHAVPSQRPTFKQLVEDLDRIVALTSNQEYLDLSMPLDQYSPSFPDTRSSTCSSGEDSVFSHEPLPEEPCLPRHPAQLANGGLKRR
# In short: (§1)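 HotSpot 33P transfer format. Enzyme, substrate and 500 nM test compound sit together for 20 min, then labelled and unlabelled ATP totalling 100 μM are added and phosphorylation proceeds for 2 h at room temperature. Products are captured on P81 cellulose paper, and activity is expressed relative to DMSO.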
# [3] = biological target: AXL (Homo sapiens (Human), UniProt P30530); experiment: Reaction Biology HotSpot kinase assay; format: biochemical; settings: 500 nM compound; read-out: Percentage kinase inhibition AXL
# In short: (§2)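 Each compound was tested at 500 nM, with 33P incorporation from ATP (100 μM final, including [γ-33P]ATP) measured by P81 paper capture after a 2 h room-temperature reaction.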
# [4] = biological target: EGFR (Homo sapiens (Human), UniProt P00533); experiment: Reaction Biology HotSpot kinase assay; format: biochemical; settings: 500 nM compound; read-out: Percentage kinase inhibition EGFR
# In short: (§3)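 Read-out is percent remaining kinase activity relative to a DMSO vehicle reaction. Compound was tested once at 500 nM and preincubated 20 min with kinase and substrate, then the reaction ran 2 h at room temperature with 100 μM final ATP spiked with [γ-33P]ATP before spotting onto P81 ion-exchange paper.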
# [5] = biological target: c-MER (Homo sapiens (Human), UniProt Q12866); experiment: Reaction Biology HotSpot kinase assay; format: biochemical; settings: 500 nM compound; read-out: Percentage kinase inhibition c-MER
# In short: as §3
# [6] = biological target: EPHB2 (Homo sapiens (Human), UniProt P29323); experiment: Reaction Biology HotSpot kinase assay; format: biochemical; settings: 500 nM compound; read-out: Percentage kinase inhibition EPHB2
# In short: as §3
# [7] = biological target: FGR (Homo sapiens (Human), UniProt P09769); experiment: Reaction Biology HotSpot kinase assay; format: biochemical; settings: 500 nM compound; read-out: Percentage kinase inhibition FGR
# FGR, sequence (P09769 whole entry): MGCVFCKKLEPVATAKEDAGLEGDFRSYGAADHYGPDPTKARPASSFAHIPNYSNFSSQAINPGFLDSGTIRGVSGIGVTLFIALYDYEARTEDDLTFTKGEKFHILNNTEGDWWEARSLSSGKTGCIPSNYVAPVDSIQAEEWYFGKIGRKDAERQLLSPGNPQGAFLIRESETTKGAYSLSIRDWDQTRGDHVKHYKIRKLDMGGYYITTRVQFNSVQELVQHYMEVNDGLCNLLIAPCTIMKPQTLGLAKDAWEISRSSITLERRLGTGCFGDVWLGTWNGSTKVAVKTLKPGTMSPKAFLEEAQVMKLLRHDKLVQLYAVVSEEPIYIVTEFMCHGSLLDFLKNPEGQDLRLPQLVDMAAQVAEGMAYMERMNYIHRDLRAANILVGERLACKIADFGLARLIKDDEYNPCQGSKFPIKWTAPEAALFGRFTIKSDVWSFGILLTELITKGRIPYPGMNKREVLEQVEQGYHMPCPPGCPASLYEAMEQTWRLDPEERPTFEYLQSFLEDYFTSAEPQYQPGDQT
# In short: as §3
# [8] = biological target: PDGFRa (Homo sapiens (Human), UniProt P16234); experiment: Reaction Biology HotSpot kinase assay; format: biochemical; settings: 500 nM compound; read-out: Percentage kinase inhibition PDGFRa
# In short: as §3
# [9] = biological target: EPHA5 (Homo sapiens (Human), UniProt P54756); experiment: Reaction Biology HotSpot kinase assay; format: biochemical; settings: 500 nM compound; read-out: Percentage kinase inhibition EPHA5
# In short: as §3
# [10] = biological target: AKT1 (Homo sapiens (Human), UniProt P31749); experiment: Reaction Biology HotSpot kinase assay; format: biochemical; settings: 500 nM compound; read-out: Percentage kinase inhibition AKT1
# AKT1, sequence (P31749 whole entry): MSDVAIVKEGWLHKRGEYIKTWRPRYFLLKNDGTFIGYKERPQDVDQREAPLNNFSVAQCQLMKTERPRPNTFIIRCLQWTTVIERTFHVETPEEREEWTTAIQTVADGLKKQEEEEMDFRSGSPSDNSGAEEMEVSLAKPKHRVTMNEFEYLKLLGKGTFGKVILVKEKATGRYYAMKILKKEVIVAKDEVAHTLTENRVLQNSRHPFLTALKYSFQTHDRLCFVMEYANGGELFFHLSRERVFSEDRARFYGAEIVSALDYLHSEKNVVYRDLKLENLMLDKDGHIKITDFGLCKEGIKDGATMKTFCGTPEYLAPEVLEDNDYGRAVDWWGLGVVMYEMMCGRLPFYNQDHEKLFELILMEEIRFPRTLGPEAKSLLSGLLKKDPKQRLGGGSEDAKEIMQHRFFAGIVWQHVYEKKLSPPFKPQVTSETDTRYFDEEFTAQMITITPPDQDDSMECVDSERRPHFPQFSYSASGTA
# In short: as §1
# [11] = biological target: FLT4/VEGFR3 (Homo sapiens (Human), UniProt P35916); experiment: Reaction Biology HotSpot kinase assay; format: biochemical; settings: 500 nM compound; read-out: Percentage kinase inhibition FLT4/VEGFR3
# In short: as §3
# [12] = biological target: ERBB2/HER2 (Homo sapiens (Human), UniProt P04626); experiment: Reaction Biology HotSpot kinase assay; format: biochemical; settings: 500 nM compound; read-out: Percentage kinase inhibition ERBB2/HER2
# In short: as §3
# [13] = biological target: KDR/VEGFR2 (Homo sapiens (Human), UniProt P35968); experiment: Reaction Biology HotSpot kinase assay; format: biochemical; settings: 500 nM compound; read-out: Percentage kinase inhibition KDR/VEGFR2
# In short: as §3
# [14] = biological target: TRKB (Homo sapiens (Human), UniProt Q16620); experiment: Reaction Biology HotSpot kinase assay; format: biochemical; settings: 500 nM compound; read-out: Percentage kinase inhibition TRKB
# In short: as §3
# [15] = biological target: YES/YES1 (Homo sapiens (Human), UniProt P07947); experiment: Reaction Biology HotSpot kinase assay; format: biochemical; settings: 500 nM compound; read-out: Percentage kinase inhibition YES/YES1
# YES/YES1, sequence (P07947 whole entry): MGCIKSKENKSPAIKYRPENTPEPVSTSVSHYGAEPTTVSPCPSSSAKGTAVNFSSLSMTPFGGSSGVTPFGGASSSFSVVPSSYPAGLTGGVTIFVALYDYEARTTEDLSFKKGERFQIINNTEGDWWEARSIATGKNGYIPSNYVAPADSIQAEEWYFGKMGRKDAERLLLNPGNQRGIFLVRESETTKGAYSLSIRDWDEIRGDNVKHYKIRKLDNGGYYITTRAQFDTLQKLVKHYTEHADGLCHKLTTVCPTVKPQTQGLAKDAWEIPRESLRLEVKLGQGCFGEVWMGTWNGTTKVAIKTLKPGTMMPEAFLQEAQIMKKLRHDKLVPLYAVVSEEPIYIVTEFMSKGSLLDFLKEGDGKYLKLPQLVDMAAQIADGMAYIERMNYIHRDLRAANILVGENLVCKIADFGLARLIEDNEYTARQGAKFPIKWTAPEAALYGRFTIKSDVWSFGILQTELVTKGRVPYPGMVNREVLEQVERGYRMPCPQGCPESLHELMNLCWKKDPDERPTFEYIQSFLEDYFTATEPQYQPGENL
# In short: as §3
# [16] = biological target: c-Met (Homo sapiens (Human), UniProt P08581); experiment: Reaction Biology HotSpot kinase assay; format: biochemical; settings: 500 nM compound; read-out: Percentage kinase inhibition c-Met
# In short: as §3
# [17] = biological target: BRAF (Homo sapiens (Human), UniProt P15056); experiment: Reaction Biology HotSpot kinase assay; format: biochemical; settings: 500 nM compound; read-out: Percentage kinase inhibition BRAF
# In short: as §2
# [18] = biological target: TIE2/TEK (Homo sapiens (Human), UniProt Q02763); experiment: Reaction Biology HotSpot kinase assay; format: biochemical; settings: 500 nM compound; read-out: Percentage kinase inhibition TIE2/TEK
# In short: as §3
# [19] = biological target: ALK (Homo sapiens (Human), UniProt Q9UM73); experiment: Reaction Biology HotSpot kinase assay; format: biochemical; settings: 500 nM compound; read-out: Percentage kinase inhibition ALK
# In short: as §3
# [20] = biological target: FLT3 (Homo sapiens (Human), UniProt P36888); experiment: Reaction Biology HotSpot kinase assay; format: biochemical; settings: for inhibition at 0.5 µM: read-out: % inhibition of FLT3 activity
# In short: as §1
# [21] = biological target: ROS/ROS1 (Homo sapiens (Human), UniProt P08922); experiment: Reaction Biology HotSpot kinase assay; format: biochemical; settings: 500 nM compound; read-out: Percentage kinase inhibition ROS/ROS1
# ROS/ROS1, sequence (P08922 28-2347): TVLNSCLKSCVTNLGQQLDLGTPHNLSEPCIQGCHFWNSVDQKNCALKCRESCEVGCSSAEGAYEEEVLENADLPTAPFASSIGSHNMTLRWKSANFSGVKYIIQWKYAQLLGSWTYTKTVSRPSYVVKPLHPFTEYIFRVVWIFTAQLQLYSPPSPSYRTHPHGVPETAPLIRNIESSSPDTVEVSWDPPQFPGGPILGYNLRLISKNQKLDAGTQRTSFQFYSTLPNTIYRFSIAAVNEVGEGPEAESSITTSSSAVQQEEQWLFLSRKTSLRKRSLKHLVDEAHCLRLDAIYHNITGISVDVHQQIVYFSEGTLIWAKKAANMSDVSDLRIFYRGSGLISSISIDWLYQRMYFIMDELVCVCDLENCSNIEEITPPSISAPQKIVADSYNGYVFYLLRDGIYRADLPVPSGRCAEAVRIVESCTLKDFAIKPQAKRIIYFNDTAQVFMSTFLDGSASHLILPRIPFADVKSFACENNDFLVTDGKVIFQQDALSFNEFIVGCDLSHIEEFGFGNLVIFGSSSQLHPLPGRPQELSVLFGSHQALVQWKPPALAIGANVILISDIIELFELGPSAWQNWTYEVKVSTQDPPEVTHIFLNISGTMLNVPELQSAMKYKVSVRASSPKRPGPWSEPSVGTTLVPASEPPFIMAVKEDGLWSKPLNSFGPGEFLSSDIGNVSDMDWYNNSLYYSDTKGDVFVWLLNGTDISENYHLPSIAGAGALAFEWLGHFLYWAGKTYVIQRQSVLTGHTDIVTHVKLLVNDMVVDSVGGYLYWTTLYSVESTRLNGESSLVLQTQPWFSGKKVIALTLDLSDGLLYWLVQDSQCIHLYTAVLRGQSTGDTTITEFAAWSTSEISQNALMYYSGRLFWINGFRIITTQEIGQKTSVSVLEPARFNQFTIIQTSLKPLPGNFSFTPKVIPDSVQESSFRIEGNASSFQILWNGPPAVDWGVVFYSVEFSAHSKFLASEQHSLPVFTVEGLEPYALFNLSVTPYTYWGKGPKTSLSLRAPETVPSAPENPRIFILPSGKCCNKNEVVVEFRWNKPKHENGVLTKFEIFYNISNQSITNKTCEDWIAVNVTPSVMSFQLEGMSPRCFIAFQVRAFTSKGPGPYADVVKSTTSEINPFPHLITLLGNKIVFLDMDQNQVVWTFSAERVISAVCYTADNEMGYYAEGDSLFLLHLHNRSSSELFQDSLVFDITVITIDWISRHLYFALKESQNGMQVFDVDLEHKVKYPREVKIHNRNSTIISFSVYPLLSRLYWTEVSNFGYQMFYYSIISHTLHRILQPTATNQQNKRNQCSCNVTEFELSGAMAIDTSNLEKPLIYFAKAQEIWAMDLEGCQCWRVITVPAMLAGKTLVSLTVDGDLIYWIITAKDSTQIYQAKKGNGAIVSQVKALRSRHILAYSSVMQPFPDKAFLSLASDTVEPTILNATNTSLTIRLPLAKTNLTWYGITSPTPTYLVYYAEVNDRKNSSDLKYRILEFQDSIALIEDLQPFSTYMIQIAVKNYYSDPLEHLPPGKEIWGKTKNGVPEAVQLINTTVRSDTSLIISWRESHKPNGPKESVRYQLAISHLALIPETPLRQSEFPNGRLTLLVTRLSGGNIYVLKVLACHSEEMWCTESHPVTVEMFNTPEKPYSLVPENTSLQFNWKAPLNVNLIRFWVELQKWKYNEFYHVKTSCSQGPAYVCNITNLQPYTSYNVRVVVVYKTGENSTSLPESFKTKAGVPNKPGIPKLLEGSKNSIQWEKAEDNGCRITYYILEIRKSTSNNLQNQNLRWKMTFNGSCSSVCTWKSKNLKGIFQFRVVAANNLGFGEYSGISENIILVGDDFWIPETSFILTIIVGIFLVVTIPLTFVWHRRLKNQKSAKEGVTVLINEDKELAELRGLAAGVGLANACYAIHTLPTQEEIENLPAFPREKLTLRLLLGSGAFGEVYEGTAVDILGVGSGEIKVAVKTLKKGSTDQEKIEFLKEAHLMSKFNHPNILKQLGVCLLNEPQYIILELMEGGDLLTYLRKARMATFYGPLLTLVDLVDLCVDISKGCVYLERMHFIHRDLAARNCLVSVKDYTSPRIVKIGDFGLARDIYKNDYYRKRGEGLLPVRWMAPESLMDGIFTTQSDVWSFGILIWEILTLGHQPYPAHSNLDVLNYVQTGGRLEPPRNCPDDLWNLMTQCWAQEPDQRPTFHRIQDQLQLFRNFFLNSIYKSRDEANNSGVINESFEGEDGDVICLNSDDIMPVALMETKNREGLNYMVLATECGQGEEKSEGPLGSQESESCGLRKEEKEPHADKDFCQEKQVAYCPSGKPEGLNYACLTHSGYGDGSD
# In short: as §3
# [22] = biological target: PKCa (Homo sapiens (Human), UniProt P17252); experiment: Reaction Biology HotSpot kinase assay; format: biochemical; settings: 500 nM compound; read-out: Percentage kinase inhibition PKCa
# In short: as §3
# [23] = biological target: FLT1/VEGFR1 (Homo sapiens (Human), UniProt P17948); experiment: Reaction Biology HotSpot kinase assay; format: biochemical; settings: 500 nM compound; read-out: Percentage kinase inhibition FLT1/VEGFR1
# In short: as §3
# [24] = biological target: BTK (Homo sapiens (Human), UniProt Q06187); experiment: Reaction Biology HotSpot kinase assay; format: biochemical; settings: 500 nM compound; read-out: Percentage kinase inhibition BTK
# In short: as §3
SMILES,IC50 [1] [nM],inhibition at 0.5 µM [2] [%],inhibition at 0.5 µM [3] [%],inhibition at 0.5 µM [4] [%],inhibition at 0.5 µM [5] [%],inhibition at 0.5 µM [6] [%],inhibition at 0.5 µM [7] [%],inhibition at 0.5 µM [8] [%],inhibition at 0.5 µM [9] [%],inhibition at 0.5 µM [10] [%],inhibition at 0.5 µM [11] [%],inhibition at 0.5 µM [12] [%],inhibition at 0.5 µM [13] [%],inhibition at 0.5 µM [14] [%],inhibition at 0.5 µM [15] [%],inhibition at 0.5 µM [16] [%],inhibition at 0.5 µM [17] [%],inhibition at 0.5 µM [18] [%],inhibition at 0.5 µM [19] [%],inhibition at 0.5 µM [21] [%],other results
COc1cc2nc(N)nc(C#Cc3cc(C(=O)Nc4ccc(CN5CCN(C)CC5)c(C(F)(F)F)c4)ccc3C)c2cc1OC [HSN325],456 ± 15,58,3,0,0,3,39,53,30,0,42,4,90,0,41,15,38,47,2,0,% inhibition of FLT3 activity ([20]; 500 nM compound): 34%; inhibition at 0.5 µM ([20]; 500 nM compound): 33%; inhibition at 0.5 µM [22]: 5%; inhibition at 0.5 µM [23]: 42%; inhibition at 0.5 µM [24]: 4%
"Cc1ccc(C(=O)Nc2ccc(CN3CCN(C)CC3)c(C(F)(F)F)c2)cc1C#Cc1cnc(N)c2ccccc12 [HSN334, 3-((1-aminoisoquinolin-4-yl)ethynyl)-4-methyl-N-(4-((4-methylpiperazin-1-yl)methyl)-3-(trifluoromethyl)phenyl)benzamide]",1.61 ± 0.02,96,5,61,0,98,100,86,97,0,79,31,94,41,100,14,96,99,0,0,"proliferation inhibition in words, MOLM-14 [1]: potent proliferation inhibitors; % inhibition of FLT3 activity [20]: 100%; inhibition at 0.5 µM [20]: 99%; inhibition at 0.5 µM [22]: 0%; inhibition at 0.5 µM [23]: 79%; inhibition at 0.5 µM [24]: 46%"
"Cc1ccc(C(=O)Nc2ccc(CN3CCN(C)CC3)c(C(F)(F)F)c2)cc1C#Cc1cnc(N)c2ncccc12 [HSN356, 3-((8-amino-1,7-naphthyridin-5-yl)ethynyl)-4-methyl-N-(4-((4-methylpiperazin-1-yl)methyl)-3-(trifluoromethyl)phenyl)benzamide]",0.62 ± 0.02,96,4,59,0,100,99,92,96,0,94,64,97,75,100,15,100,100,0,0,"proliferation inhibition in words, MOLM-14 [1]: potent proliferation inhibitors; % inhibition of FLT3 activity [20]: 99%; inhibition at 0.5 µM [20]: 98%; inhibition at 0.5 µM [22]: 0%; inhibition at 0.5 µM [23]: 94%; inhibition at 0.5 µM [24]: 65%"
